Measured values taken from patent publication US20060025344A1, “Ghrelin receptor inverse agonists for regulation of feeding behaviors” (7TM Pharma A/S, priority 2002, published 2006).
Entries after “also recorded” stand apart in the source; their conditions may differ. Non-standard residues stand in square brackets, D forms with d. Residues, ends and D or L forms follow the SMILES beside them.

Legend:
human ghrelin receptor = human ghrelin receptor (Homo sapiens, UniProt Q92847); assay: Inverse agonism on basal, constitutive signalling measured by inositol phosphate turnover in transiently transfected COS-7 cells; format: cell-based; conditions: wild-type ghrelin receptor; for IC50: IP turnover
Experimental: Cells were transfected with Lipofectamine 2000 (Life Technologies).
(§1) Cells were washed twice in buffer, 20 mM HEPES, pH 7.4, supplemented with 140 mM NaCl, 5 mM KCl, 1 mM MgSO4, 1 mM CaCl2, 10 mM glucose, 0.05% (w/v) bovine serum; and were incubated in 0.5 ml buffer supplemented with 10 mM LiCl at 37 °C. for 30 min. […] Determinations were made in duplicates.

[1] = molecular target: metal-ion site engineered ghrelin receptor (V:01 and V:05 substituted with His) (Homo sapiens, UniProt Q92847, L209H/M213H); assay: Inverse agonism on basal inositol phosphate turnover in the metal-ion site engineered receptor; format: cell-based
Experimental: as §1
Metal-ion site engineering has previously been used as a molecular probe for both antagonism, agonism and inverse agonism (Elling et al., 1995; Elling et al., 1999; Rosenkilde et al., 1999). Here we built a metal-ion binding site into the ghrelin receptor by substituting residues V:01 and V:05 with His residues. 125 l-ghrelin bound with normal high affinity to the metal-ion site engineered receptor and ghrelin could stimulate IP turnover with a potency and efficacy as in the wild-type receptor (data not shown). […] A similar result has been obtained in the HHV8 encoded constitutively active ORF-74 receptor (Rosenkilde et al., 1999). […] This is important for the invention since the invention is aimed at small molecule, preferentially non-peptide compounds which will serve as inverse agonists against the receptor and most of these will conceivably as the majority of small molecule drugs in general in 7TM G protein coupled receptor bind in between the extracellular ends of the transmembrane segments.

NK1 receptor = NK1 receptor (Homo sapiens, UniProt P25103); assay: Block of SP induced accumulation of IP in COS-7 cells transiently transfected with the NK1 receptor; format: cell-based; conditions: data not shown
[2] = system: lean mice, mice with diet induced obesity, ob/ob obese mice; conditions: cited from earlier work
bombesin receptor 1 = conditions: according to the literature; cited from earlier work

human ghrelin receptor, sequence (Q92847 whole entry): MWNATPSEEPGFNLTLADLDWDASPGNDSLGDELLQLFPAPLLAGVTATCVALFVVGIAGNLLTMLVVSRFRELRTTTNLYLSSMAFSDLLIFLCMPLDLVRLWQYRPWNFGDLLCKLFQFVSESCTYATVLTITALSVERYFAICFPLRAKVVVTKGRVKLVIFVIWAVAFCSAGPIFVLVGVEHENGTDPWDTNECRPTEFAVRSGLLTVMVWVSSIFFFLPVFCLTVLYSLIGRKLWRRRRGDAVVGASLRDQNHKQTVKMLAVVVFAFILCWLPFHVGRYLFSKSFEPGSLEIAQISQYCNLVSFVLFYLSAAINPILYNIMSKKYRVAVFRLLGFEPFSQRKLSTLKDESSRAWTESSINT
metal-ion site engineered ghrelin receptor (V:01 and V:05 substituted with His), sequence (Q92847 whole entry L209H/M213H): as the sequence (Q92847 whole entry) above, with L209H, M213H counted along it
NK1 receptor, sequence (P25103 whole entry, species assumed): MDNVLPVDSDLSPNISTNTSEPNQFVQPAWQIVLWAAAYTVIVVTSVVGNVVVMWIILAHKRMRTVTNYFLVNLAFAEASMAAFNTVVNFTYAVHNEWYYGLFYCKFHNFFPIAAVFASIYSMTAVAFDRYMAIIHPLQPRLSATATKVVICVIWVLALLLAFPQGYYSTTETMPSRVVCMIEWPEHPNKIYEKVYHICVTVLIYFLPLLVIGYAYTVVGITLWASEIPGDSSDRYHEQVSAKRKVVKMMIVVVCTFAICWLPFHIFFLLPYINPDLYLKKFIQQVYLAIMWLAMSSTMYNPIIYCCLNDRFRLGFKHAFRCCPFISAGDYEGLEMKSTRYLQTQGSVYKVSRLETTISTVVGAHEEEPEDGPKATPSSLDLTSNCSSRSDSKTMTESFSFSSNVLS

| IC50 (human ghrelin receptor) | IC50 ([1]; metal ion site engineered receptor, IP turnover, read-out: IC50 for inverse agonism on basal, constitutive signalling) | efficacy as inverse agonist (in words) ([1]; metal-ion site engineered receptor) | Structure (SMILES) | efficacy as inverse agonist (in words) (human ghrelin receptor; absence of ghrelin) | antagonist potency on the NK1 receptor (in words) (NK1 receptor) | energy intake / food intake ([2]; lean mice, diet induced obesity mice, ob/ob obese mice, repeated administrations for six days) | rate of gastric emptying ([2]; mice) | body weight gain ([2]; repeated administrations, obese ob/ob mice (normal and obese mice)) | glycaemic control ([2]; repeated administrations, obese ob/ob mice) | antagonist potency on the bombesin receptor (in words) (bombesin receptor 1) |
| --- | --- | --- | --- | --- | --- | --- | --- | --- | --- | --- |
| 6.5 µM | – | – | O=C(O)CCc1ccc(-c2ccc(Br)cc2)n1-c1cccc(C(F)(F)F)c1 [TM27810, 3-[5-(4-Bromo-phenyl)-1-(3-trifluoromethyl-phenyl)-1H-pyrrol-2-yl]-propionic acid] | high efficacy inverse agonist; also recorded: efficiently decreases the constitutive signalling activity | – | – | – | – | – | – |
| 160 ± 70 µM | 4.3 ± 0.2 µM | full inverse agonist | [Zn+2] [Zn(II)] | – | – | – | – | – | – | – |
| – | – | – | CC(C)C[C@H](NC(=O)[C@H](CC(C)C)NC(=O)[C@@H](Cc1c[nH]c2ccccc12)NC(=O)[C@H](Cc1ccccc1)NC(=O)[C@@H](Cc1c[nH]c2ccccc12)NC(=O)[C@H](CCC(N)=O)NC(=O)[C@@H](Cc1ccccc1)NC(=O)[C@@H]1CCCN1C(=O)[C@H](CCCCN)NC(=O)[C@@H]1CCCN1C(=O)[C@H](N)CCCNC(=N)N)C(N)=O [[D-Arg^1, D-Phe^5, D-Trp^7,9, Leu^11]-Substance P] (H-[dR]PKP[dF]Q[dW]F[dW]LL-NH2; N-terminus and C-terminus assumed) | – | micromolar antagonist; also recorded: at micromolar concentrations also has effects | decreased | reduced | decreased | improved | micromolar antagonist |
